Each structure is given as a SMILES string. Counter-ions that a name gives are not always drawn.

The IC50 is the concentration needed to halve the response being measured. The low end stands for inhibition by little substance, the high end for a need for much substance.

The target of this assay is T1, HMG-CoA reductase (Rattus norvegicus, UniProt P51639).
T1 sequence (P51639 1-887): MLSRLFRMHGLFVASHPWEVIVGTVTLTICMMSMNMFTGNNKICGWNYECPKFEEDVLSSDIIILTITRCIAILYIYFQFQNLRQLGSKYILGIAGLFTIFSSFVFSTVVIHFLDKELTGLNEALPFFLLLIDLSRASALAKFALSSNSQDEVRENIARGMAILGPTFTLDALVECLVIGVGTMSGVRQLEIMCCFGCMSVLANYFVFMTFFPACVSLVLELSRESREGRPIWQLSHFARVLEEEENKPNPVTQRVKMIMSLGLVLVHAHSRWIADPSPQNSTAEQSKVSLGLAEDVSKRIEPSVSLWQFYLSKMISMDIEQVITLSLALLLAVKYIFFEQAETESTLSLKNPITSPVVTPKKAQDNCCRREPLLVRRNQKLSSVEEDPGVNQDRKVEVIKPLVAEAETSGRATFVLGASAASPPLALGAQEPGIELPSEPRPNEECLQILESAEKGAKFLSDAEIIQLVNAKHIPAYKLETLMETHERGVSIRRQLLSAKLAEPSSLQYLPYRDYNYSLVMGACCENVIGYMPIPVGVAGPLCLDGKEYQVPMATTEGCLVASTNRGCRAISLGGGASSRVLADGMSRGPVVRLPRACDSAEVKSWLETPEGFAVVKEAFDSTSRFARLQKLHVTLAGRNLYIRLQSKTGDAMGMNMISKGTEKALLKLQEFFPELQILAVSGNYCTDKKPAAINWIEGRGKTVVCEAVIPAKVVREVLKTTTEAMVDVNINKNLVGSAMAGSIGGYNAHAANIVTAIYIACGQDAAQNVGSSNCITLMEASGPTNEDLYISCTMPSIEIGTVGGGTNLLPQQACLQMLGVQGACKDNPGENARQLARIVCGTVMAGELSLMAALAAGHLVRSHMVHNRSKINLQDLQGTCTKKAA
Briefly: biochemical. The following applies: Table 3.
Description: The determination of the inhibitory activity of the compounds was made using the method of Kuroda et al ["Biochimica et Biophysica Acta" Vol. 486, pp. 70-81 (1977)] which is a modification of the known method of D. J. Shapiro et al ["Analytical Biochemistry" Vol. 31, pp. 383-390 (1969)] with some improvements.
Consider `CCC(C)C(=O)OC1CCC(=NOCc2c(C)noc2C)C2=CC(=O)C(C)C(CCC(=O)CC(O)CC(=O)O)C21` (stereo not drawn), for which the IC50 was 16.3 nM.

`CCC(C)C(=O)OC1CCC(=NOCc2ccccc2)C2=CC(=O)C(C)C(CCC(=O)CC(O)CC(=O)O)C21` (stereo not drawn) returned an IC50 of 16.3 nM.

Compound `CCC(C)C(=O)OC1CCC(=NOCc2cnoc2)C2=CC(=O)C(C)C(CCC(=O)CC(O)CC(=O)O)C21` (stereo not drawn) had an IC50 of 20.2 nM.

`CCC(C)C(=O)OC1CCC(=NOCc2ccccc2)C2=CC(=O)C(C)C(CCC(O)CC(O)CC(=O)O)C21` (stereo not drawn) [Na salt of Compound of Preparation 1]: the IC50 turned out to be 18.5 nM.

With `CCC(C)C(=O)OC1CCC(=NOCc2cnoc2)C2=CC(=O)C(C)C(CCC(O)CC(O)CC(=O)O)C21` (stereo not drawn) [Na salt of Compound of Preparation 9], the IC50 amounted to 22.8 nM.

For the compound `CCC(C)C(=O)OC1CCC(=NOCc2c(C)noc2C)C2=CC(=O)C(C)C(CCC(O)CC(O)CC(=O)O)C21` (stereo not drawn) [Na salt of Compound of Preparation 11], the IC50 was 17.3 nM. This IC50 and that of the compound before are within 1.5-fold of each other.
